This note sets out measurements from patent publication US20130172342A1, “BENZIMIDAZOLE DERIVATIVES AS SELECTIVE BLOCKERS OF PERSISTENT SODIUM CURRENT” (Allergan, Inc., priority 2011, published 2013).

Holding throughout (format): cell-based
The subject of experiment [1] is persistent sodium currents. The experiment can be described thus: FLIPR sodium depletion/repletion assay (voltage-sensitive dyes). Conditions: for IC50: 8-point concentration-response, antagonism of persistent current; for HTS % Block: single concentration HTS protocol, inhibition of the control response. As for the experimental part:
To identify compounds that block persistent sodium currents, they were tested in a sodium depletion/repletion assay in which changes in the fluorescence of voltage-sensitive dyes measured in a Fluorometric Imaging Plate Reader (FLIPR) were used to infer the effects of the compounds on persistent sodium currents. The compounds were first tested in a single concentration HTS protocol.

Experiment [2] concerns transient sodium currents. The experiment can be described thus: IonWorks automated patch clamp, whole-cell voltage clamp. The settings on record: inhibition of transient sodium currents, read-out: IW IC50. On the procedure: To determine the selectivity of effects of these compounds on the persistent current, the inhibition of transient sodium currents using an automated patch clamp was also tested for the compounds. For direct measurement of Na+ currents the IonWorks automated patch clamp system was used. The IonWorks system is a high-throughput electrophysiological instrument that performs whole-cell voltage clamp recordings in a 384-well plate format.
A general note: In patch-clamp work, channel activity is measured electrically.

In experiment [3] the test system is Nav1.3 or Nav1.6 channels. The experiment can be described thus: gigohm-seal manual patch-clamp (MPC) in HEK cells stably transfected with sodium channels. Conditions: for block of persistent versus transient sodium currents: FIG. 1, percentage of control current at steady state, n=3; for concentration effective in blocking 50% of the persistent current: HEK cells expressing Nav1.3 or Nav1.6, FIG. 1. On the procedure: Nav1.3 or Nav1.6 channels were expressed in HEK cells, currents were measured using standard MPC electrophysiological techniques. Data are summarized from at least 3 experiments for each concentration tested and were normalized to the control currents before compound addition. Data are presented as the mean and standard error of the mean (n=3) of the percentage of the control current observed at steady state after compound addition.
Therefore, the efficacy and selectivity of the identified persistent current antagonists were verified using conventional gigohm-seal manual patch-clamp (MPC).
MPC experiments were conducted on human embroynic kidney (HEK) cells stably transfected with sodium channels were plated on coverslips. Cells were patch clamped using standard patch-clamp techniques (Hamill, O. P., A. Marty, et al., 1981 Pflugers Arch. 391:85-100). Once sufficient persistent current was established, buffer was introduced into the chamber at a constant flow rate of […] until the persistent current stabilized. Subsequent concentration-response experiments were conducted using this same flow rate. After application of the compound, current amplitude was monitored until equilibrium was established. The data recorded at equilibrium was normalized to the control current measured during perfusion with control buffer in the absence of a test compound. Adequate solution perfusion and gigohm seal stability were monitored throughout the experiment. The compound's antagonism of persistent or transient sodium currents is expressed as the IC5O of block for the respective current (see Table 1). Selectivity for block of the persistent current was calculated as the ratio of the IC5O for the transient current divided by the IC5O for the persistent current.
Direct measurement of the sodium current in cells expressing either Nav1.3 or
As shown for the exemplary compounds (compound #1 in Table 1 and Compound A shown below)

The structures appear in SMILES notation.

By IC50 is commonly meant the concentration that inhibits the measured activity by half. With `C/C=C/c1ccc(OCCn2c(CN3CCOCC3)nc3ccccc32)c(OC)c1`, the IC50 was 18.2 µM in experiment [1] and greater than 30 µM in experiment [2]. Moreover, the “HTS % Block” value in experiment [1] is listed as 75.7%.

For the compound `Cc1cccc(OCCn2c(CN3CCOCC3)nc3ccccc32)c1C`, in experiment [1], the IC50 was 3.53 µM and the “HTS % Block” value stood at 97.3%. Besides, the IC50 in experiment [2] was greater than 30 µM.

As for `C/C=C/c1ccc(OCCn2c(C(C)N3CCCCC3)nc3ccccc32)c(OC)c1` (stereo not drawn), in experiment [1], the IC50 was greater than 30 µM and the “HTS % Block” value stood at 34.6%. The concentration for half-maximal inhibition (IC50) in experiment [2] is greater than 30 µM.

For `Cc1ccc(OCCn2c(CN3CCOCC3)nc3ccccc32)cc1`, in experiment [1], 6.38 µM corresponded to half-maximal inhibition (IC50) and the “HTS % Block” value is listed as 92.3%. Besides, the IC50 in experiment [2] is greater than 30 µM.

In the case of `Clc1ccc(OCCn2c(CN3CCCCC3)nc3ccccc32)cc1`, in experiment [1], half-maximal inhibition (IC50) was put at 1.46 µM and the “HTS % Block” value was determined as 80.7%. Further, the IC50 in experiment [2] came out at 27.8 µM.

Regarding `Cc1ccccc1OCCn1c(CN2CCCCC2)nc2ccccc21`, in experiment [1], the midpoint of inhibition, the IC50, lay at 5.56 µM and the “HTS % Block” value stood at 93.6%. Besides, in experiment [2], the half-inhibitory concentration (IC50) was greater than 30 µM.

Consider `Cc1cccc(C)c1OCCCn1c(CN2CCOCC2)nc2ccccc21`, for which, in experiment [1], the midpoint of inhibition, the IC50, lay at 0.852 µM and the “HTS % Block” value turned out to be 98.9%. Besides, in experiment [2], the IC50 was greater than 30 µM.

For `Cc1cccc(OCCn2c(CN3CCCCC3)nc3ccccc32)c1C`, in experiment [1], the IC50 was 0.452 µM and the “HTS % Block” value is 78.9%. In experiment [2], the IC50 is 13.8 µM.

Take `Cc1ccccc1OCCn1c(CN2CCOCC2)nc2ccccc21`: in experiment [1], the IC50 is 3.24 µM and the “HTS % Block” value stood at 92.7%. In experiment [2], the IC50 was greater than 30 µM.

For `CCc1ccc(OCCn2c(CN3CCOCC3)nc3ccccc32)cc1`, in experiment [1], the IC50 was 3.67 µM and the “HTS % Block” value was 90.8%. For the same compound, the half-maximal inhibitory concentration (IC50) in experiment [2] is 30 µM.

As to `C=CCc1ccc(OCCn2c(CN3CCOCC3)nc3ccccc32)c(OC)c1`, in experiment [1], 5.12 µM corresponded to half-maximal inhibition (IC50) and the “HTS % Block” value is on record as 70.7%. The IC50 in experiment [2] is no less than 30 µM.

For the compound `COc1ccccc1OCCn1c(CN2CCOCC2)nc2ccccc21`, the IC50 in experiment [1] and in experiment [2] was greater than 30 µM each time. In addition, the “HTS % Block” value in experiment [1] turned out to be 70.1%.

Take `Cc1ccc(C)c(OCCn2c(CN3CCOCC3)nc3ccccc32)c1`: in experiment [1], the IC50 was found to be 2.3 µM and the “HTS % Block” value amounted to 92.7%. The IC50 in experiment [2] is greater than 30 µM.

As to `CC(C)N(C(=O)Cn1c(CN2CCCCC2)nc2ccccc21)c1ccccc1`, in experiment [1], the IC50 turned out to be 6.35 µM and the “HTS % Block” value amounted to 84.2%. The IC50 in experiment [2] was greater than 30 µM.

For `COc1cccc(OCCn2c(CN3CCCCC3)nc3ccccc32)c1`, in experiment [1], half-maximal inhibition (IC50) was put at 0.521 µM and the “HTS % Block” value worked out at 96.5%. The IC50 in experiment [2] was greater than 30 µM.

On to `Cc1ccc(OCCn2c(CN3CCCCC3)nc3ccccc32)cc1`, for which, in experiment [1], the half-inhibitory concentration (IC50) stood at 0.751 µM and the “HTS % Block” value was 94.6%. Also, the IC50 in experiment [2] is greater than 30 µM.

In the case of `Cc1ccc(OCCn2c(CN3CCOCC3)nc3ccccc32)c(C)c1`, the values for the half-inhibitory concentration (IC50) in experiment [1] and in experiment [2] were 4.52 µM and greater than 30 µM, respectively. Further, in experiment [1], the “HTS % Block” value was found to be 79.3%.

On to `Cc1cc(C)cc(OCCn2c(CN3CCOCC3)nc3ccccc32)c1`, for which the results for the IC50 in experiment [1] and in experiment [2] were 1.47 µM and greater than 30 µM, respectively. In experiment [1], the “HTS % Block” value is 92.6%.

Turning to `Cc1ccc(C)c(OCCn2c(CN3CCCCC3)nc3ccccc32)c1`, the IC50 worked out at 0.559 µM in experiment [1] and 22.8 µM in experiment [2]. For the same compound, the “HTS % Block” value in experiment [1] is listed as 88.9%.

As to `CCn1c(C(C)N2CCCCC2)nc2ccccc21` (stereo not drawn), in experiment [1], it took 16.3 µM to reach half-maximal inhibition (IC50) and the “HTS % Block” value is recorded as 90.6%. For the same compound, the IC50 in experiment [2] was greater than 30 µM.

For `Cc1cccc(C)c1OCCn1c(CN2CCCCC2)nc2ccccc21` [Compound #1, 1-[2-(2,6-Dimethylphenoxy)ethyl]-2-piperidin-1-ylmethyl-1H-benzimidazole], inhibition in experiment [1] was half-maximal at 0.066 µM (IC50). Besides, the IC50 in experiment [2] was greater than 30 µM. In experiment [3], the “block of persistent versus transient sodium currents” value is reported as “effective in blocking persistent sodium currents at concentrations that did not affect transient currents” and the “concentration effective in blocking 50% of the persistent current” value is listed as “low to submicromolar”.

On to `Cc1cccc(OCCn2c(CN3CCOCC3)nc3ccccc32)c1`, for which, in experiment [1], the IC50 is 7.85 µM and the “HTS % Block” value stood at 86.5%. The IC50 in experiment [2] was greater than 30 µM.

Take `COc1ccc(OCCn2c(C(C)N3CCOCC3)nc3ccccc32)cc1` (stereo not drawn): the values for the IC50 in experiment [1] and in experiment [2] were 9.81 µM and greater than 30 µM, respectively. For the same compound, the “HTS % Block” value in experiment [1] worked out at 92.9%.

`Cc1ccc(C(C)C)c(OCCn2c(CN3CCOCC3)nc3ccccc32)c1` [Compound A]: in experiment [3], the “block of persistent versus transient sodium currents” value was “effective in blocking persistent sodium currents at concentrations that did not affect transient currents” and the “concentration effective in blocking 50% of the persistent current” value is “low to submicromolar”.

For the compound `Cc1cccc(C)c1OCCn1c(CN2CCOCC2)nc2ccccc21`, the concentration for half-maximal inhibition (IC50) in experiment [1] was 0.729 µM; in experiment [2], greater than 30 µM. In addition, the “HTS % Block” value in experiment [1] worked out at 95.2%.

`COc1ccccc1OCCCCn1c(CN2CCCCC2)nc2ccccc21`: the IC50 in experiment [1] was 0.83 µM; in experiment [2], greater than 30 µM. In addition, in experiment [1], the “HTS % Block” value came to 95.5%.

With `Cc1ccc(OCCn2c(CN3CCCCC3)nc3ccccc32)cc1C`, in experiment [1], half-maximal inhibition (IC50) was put at 0.589 µM and the “HTS % Block” value was 80.1%. In addition, in experiment [2], the IC50 was 23.4 µM.

For the compound `COc1ccc(OCCn2c(C(C)N3CCCCC3)nc3ccccc32)cc1` (stereo not drawn), in experiment [1], the IC50 amounted to 0.95 µM and the “HTS % Block” value amounted to 95.2%. Further, in experiment [2], the IC50 was greater than 30 µM.

In the case of `c1ccc(OCCn2c(CN3CCOCC3)nc3ccccc32)cc1`, in experiment [1], the IC50 was determined as 7.79 µM and the “HTS % Block” value amounted to 99.2%. For the same compound, the IC50 in experiment [2] was greater than 30 µM.

Take `COc1ccc(OCCn2c(CN3CCOCC3)nc3ccccc32)cc1`: the IC50 in experiment [1] and in experiment [2] was greater than 30 µM in each case. For the same compound, the “HTS % Block” value in experiment [1] is 57.7%.

Turning to `C=CCc1ccccc1OCCn1c(CN2CCOCC2)nc2ccccc21`, in experiment [1], the IC50 was determined as 1.14 µM and the “HTS % Block” value was 91.5%. For the same compound, the 50% inhibitory concentration (IC50) in experiment [2] is greater than 30 µM.

`COc1ccccc1OCCn1c(CN2CCCCC2)nc2ccccc21`: in experiment [1], half-maximal inhibition (IC50) required 0.347 µM and the “HTS % Block” value was 94.8%. Besides, the IC50 in experiment [2] is greater than 30 µM.
